Measured values from patent US4661502A (priority 1983, dated 1987).

Experiments:
[1] = tested on: Hypercholesterolemic Rats; parameters: species or system Wistar rats; settings: rat, in vivo
male Wistar rats = settings: rat, in vivo

Structure (SMILES): CN(C)C(=O)Oc1cccc([N+](C)(C)C)c1 [Neostigmine bromide]
- LDL-cholesterol [1]: 76.6 ± 10.7 mg %
- Total cholesterol [1]: 131.2 ± 11.8 mg %
- Acute toxicity: state of the rats after administration (male Wistar rats): all the rats were dead
